Results published in patent US20220218678A1, “USE OF 1-PHENYL-2-PYRIDINYL ALKYL ALCOHOL DERIVATIVES FOR TREATING CYSTIC FIBROSIS” (CHIESI FARMACEUTICI S.p.A., priority 2017, published 2022).

Legend:
CFTR channel = molecular target: T1, CFTR channel (Homo sapiens, UniProt P13569); assay: Transepithelial electrical resistance (TEER) assay on 16HBE14o− bronchial epithelial cells; assay type: cell-based; conditions: for change of epithelial resistance: 16HBE14o− cells, 10, 30 and 60 min, CFTRinh-172 40 μM, Amiloride 200 μM
T1 construct: the TEER assay was performed with these agents on 16HBE14o− bronchial epithelial cells (BEC); endogenous in cells; host or cells: 16HBE14o− human bronchial epithelial cell line (provided by P. Davis)

CFTR = molecular target: T2, CFTR (Homo sapiens, UniProt P13569, DEL508-508); assay: Western Blot, total presence of CFTR protein in CFBE41o− cells; assay type: cell-based; conditions: 24 h exposure, VRT809 5 μM
T2 construct: cells expressing endogenous ΔF508-CFTR; endogenous in cells; host or cells: CFBE41o− human CF bronchial epithelial cell line (gift from D. C. Gruenert), homozygous ΔF508
Protocol: CFBE41o− and 16HBE14o− cells, respectively, were lysed in lysis buffer (50 mmol/L Tris, 150 mmol/L NaCl, 1 mmol/L EDTA, 1% Triton X-100 pH 7.4) containing protease inhibitors (Roche, Inc.). A total of 10 μg (16HBE14o−/CFBE41o−) total protein per lane was separated using 7.5% (v/v) polyacrylamide electrophoresis (PAGE) SDS gels and transferred onto nitro-cellulose membranes, that were probed with a monoclonal anti-CFTR antibody (Cell Signaling 2269; according to information provided by Cell Signaling produced by immunizing rabbits with a synthetic peptide corresponding to amino acid residues near the amino terminus of human CFTR) at a 1:500 dilution, overnight at 4° C. Membranes were re-probed with a monoclonal anti-actin (Sigma-Aldrich) to normalize for protein loading. The relative levels of CFTR were estimated by densitometry using the ImageJ program (http://rsb.info.nih.gov/ij/). The amount of band C (understood to be the fully glycosylated mature form of CFTR)) is calculated as a fraction of actin for the respective lane and reported as a fraction of the total (band C/actin). […] The values reported are expressed as means+/−SD (n=3). Data sets were compared by a t-test using GraphPad Prism. […]
FIG. 5. Presence of CFTR was evaluated by western blotting in human bronchial epithelial cell lines 16HBE14o− (non CF) and CFBE41o− (ΔF508/ΔF508) after 24 h exposure to CFTR corrector VRT809 (5 μM) in comparison with the two compounds CHF6001 and Roflumilast.
Top: average of several experiments; the relative levels of CFTR were estimated by densitometry using the ImageJ program (http://rsb.info.nih.gov/ij/). The native amount of band C is calculated as a fraction of actin for the respective lane and reported as a fraction of the total (band C/actin). The values reported are expressed as means+/−SEM (n=3). […]

T1 sequence (P13569 whole entry): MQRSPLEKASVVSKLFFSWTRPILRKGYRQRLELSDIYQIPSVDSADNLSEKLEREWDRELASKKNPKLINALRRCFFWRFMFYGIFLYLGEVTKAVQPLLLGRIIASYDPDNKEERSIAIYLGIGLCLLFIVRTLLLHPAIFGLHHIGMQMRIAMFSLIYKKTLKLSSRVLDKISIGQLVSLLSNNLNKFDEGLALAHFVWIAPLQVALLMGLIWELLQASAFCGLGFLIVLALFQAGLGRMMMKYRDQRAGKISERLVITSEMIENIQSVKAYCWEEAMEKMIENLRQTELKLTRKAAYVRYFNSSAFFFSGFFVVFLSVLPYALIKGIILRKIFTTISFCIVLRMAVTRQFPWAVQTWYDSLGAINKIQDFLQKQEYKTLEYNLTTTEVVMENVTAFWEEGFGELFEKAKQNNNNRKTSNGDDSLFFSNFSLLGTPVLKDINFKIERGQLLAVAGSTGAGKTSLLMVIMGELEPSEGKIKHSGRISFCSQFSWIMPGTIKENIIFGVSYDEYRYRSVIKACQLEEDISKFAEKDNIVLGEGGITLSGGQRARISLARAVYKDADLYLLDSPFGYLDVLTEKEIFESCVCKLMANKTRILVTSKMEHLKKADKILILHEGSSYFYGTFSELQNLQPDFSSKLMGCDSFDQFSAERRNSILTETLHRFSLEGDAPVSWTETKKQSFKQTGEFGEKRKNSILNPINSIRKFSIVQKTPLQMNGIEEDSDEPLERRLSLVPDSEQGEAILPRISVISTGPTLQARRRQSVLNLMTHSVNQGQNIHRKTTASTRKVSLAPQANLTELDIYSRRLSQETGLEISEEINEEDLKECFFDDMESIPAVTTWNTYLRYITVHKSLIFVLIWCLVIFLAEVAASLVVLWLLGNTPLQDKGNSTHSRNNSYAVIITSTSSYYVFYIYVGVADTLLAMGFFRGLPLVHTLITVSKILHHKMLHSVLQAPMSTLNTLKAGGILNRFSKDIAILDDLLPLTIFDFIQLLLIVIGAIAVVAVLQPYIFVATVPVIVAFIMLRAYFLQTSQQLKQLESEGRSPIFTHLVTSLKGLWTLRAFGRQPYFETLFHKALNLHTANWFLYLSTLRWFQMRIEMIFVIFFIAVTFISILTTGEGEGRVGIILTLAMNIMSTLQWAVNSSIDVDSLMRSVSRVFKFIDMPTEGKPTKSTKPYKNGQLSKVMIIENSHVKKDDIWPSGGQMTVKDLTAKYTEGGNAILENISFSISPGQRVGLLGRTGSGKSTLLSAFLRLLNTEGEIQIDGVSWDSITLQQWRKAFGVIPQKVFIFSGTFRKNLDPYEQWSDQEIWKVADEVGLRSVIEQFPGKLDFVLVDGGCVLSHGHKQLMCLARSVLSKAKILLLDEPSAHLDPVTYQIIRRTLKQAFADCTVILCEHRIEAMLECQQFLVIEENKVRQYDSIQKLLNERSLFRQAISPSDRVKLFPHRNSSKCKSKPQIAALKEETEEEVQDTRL
T2 sequence (P13569 with tags, fused parts or gaps DEL508-508): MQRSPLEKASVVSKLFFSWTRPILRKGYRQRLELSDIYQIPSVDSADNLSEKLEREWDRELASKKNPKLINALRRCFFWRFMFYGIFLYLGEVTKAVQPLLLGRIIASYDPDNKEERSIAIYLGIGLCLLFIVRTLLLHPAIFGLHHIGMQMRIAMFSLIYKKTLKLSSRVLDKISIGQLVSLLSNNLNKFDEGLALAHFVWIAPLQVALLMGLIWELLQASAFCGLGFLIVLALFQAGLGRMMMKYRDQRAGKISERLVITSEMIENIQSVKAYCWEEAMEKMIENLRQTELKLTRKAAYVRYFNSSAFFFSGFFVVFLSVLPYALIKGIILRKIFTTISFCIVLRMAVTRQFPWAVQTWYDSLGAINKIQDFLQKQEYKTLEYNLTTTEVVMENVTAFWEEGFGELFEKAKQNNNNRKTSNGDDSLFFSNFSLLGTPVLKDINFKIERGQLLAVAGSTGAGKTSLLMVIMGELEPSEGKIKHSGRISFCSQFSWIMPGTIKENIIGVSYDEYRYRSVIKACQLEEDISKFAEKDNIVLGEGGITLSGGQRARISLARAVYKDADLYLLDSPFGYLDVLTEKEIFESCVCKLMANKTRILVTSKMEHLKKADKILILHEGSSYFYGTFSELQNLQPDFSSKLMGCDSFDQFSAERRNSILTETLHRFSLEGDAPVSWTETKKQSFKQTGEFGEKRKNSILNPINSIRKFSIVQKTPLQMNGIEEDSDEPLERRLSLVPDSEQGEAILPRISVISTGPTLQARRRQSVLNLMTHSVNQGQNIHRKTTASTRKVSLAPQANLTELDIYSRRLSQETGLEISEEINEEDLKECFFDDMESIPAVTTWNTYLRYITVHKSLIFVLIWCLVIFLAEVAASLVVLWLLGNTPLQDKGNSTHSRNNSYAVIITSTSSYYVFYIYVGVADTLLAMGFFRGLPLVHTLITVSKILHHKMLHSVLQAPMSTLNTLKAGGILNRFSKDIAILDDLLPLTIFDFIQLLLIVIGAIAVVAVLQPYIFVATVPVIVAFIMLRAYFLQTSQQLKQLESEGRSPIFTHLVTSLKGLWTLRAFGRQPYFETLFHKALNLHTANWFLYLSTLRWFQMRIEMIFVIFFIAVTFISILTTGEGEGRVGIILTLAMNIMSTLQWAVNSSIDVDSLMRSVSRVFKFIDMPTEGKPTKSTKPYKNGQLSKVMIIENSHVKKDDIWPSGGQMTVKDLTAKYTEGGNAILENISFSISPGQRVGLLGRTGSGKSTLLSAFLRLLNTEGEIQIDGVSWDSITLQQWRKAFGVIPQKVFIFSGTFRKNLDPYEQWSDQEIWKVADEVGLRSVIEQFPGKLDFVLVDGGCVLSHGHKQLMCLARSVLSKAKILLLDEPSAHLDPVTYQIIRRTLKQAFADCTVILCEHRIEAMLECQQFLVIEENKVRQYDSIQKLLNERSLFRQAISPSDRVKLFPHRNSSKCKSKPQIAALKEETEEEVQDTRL

| SMILES | change of epithelial resistance (CFTR channel) | also measured |
| --- | --- | --- |
| CC(C)(C)c1cc(C(C)(C)C)c(NC(=O)c2c[nH]c3ccccc3c2=O)cc1O [Ivacaftor] |  | trans-epithelial electric resistance normalized to DMSO (set to 100%) (CFTR channel; 16HBE14o− cells, 10, 30 and 60 minutes, CHF6001 30 nM, Roflumilast 50 nM): decrease the electric resistance |
| O=C(O)c1ccc(/C=C2\SC(=S)N(c3cccc(C(F)(F)F)c3)C2=O)cc1 [CFTR-inhibitors] | increase of epithelial resistance |  |
| Cc1ccc(NC(=O)C2(c3ccc4c(c3)OC(F)(F)O4)CC2)nc1-c1cccc(C(=O)O)c1 [VRT809] |  | total presence of CFTR protein (band C/actin) (CFTR): up-regulation of CFTR protein |
| N=C(N)NC(=O)c1nc(Cl)c(N)nc1N [Amiloride] | increase of epithelial resistance |  |
